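Exposure lasted 48 hours, with cells grown in 96-well plates and compounds tested at five concentrations. Abbreviation: GI50, concentration required for 50% inhibition of growth. The concentration for full growth arrest is given as TGI.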
Key:
Test in all cases: DTP human tumour cell line panel, 48 h
NCI/ADR-RES ovarian = tested on: NCI/ADR-RES ovarian
NCI-H23 lung = tested on: NCI-H23 lung
HL-60(TB) leukemia = tested on: HL-60(TB) leukemia
SK-MEL-2 melanoma = tested on: SK-MEL-2 melanoma
CCRF-CEM leukemia = tested on: CCRF-CEM leukemia
TK-10 renal = tested on: TK-10 renal
UACC-62 melanoma = tested on: UACC-62 melanoma
HOP-62 NSCLC = tested on: HOP-62 NSCLC
HCT-116 colon = tested on: HCT-116 colon
UO-31 renal = tested on: UO-31 renal
DU-145 prostate = tested on: DU-145 prostate
A549 NSCLC = tested on: A549 NSCLC
786-0 renal = tested on: 786-0 renal
SK-MEL-28 melanoma = tested on: SK-MEL-28 melanoma
OVCAR-5 ovarian = tested on: OVCAR-5 ovarian
SF-539 CNS = tested on: SF-539 CNS
MOLT-4 leukemia = tested on: MOLT-4 leukemia
OVCAR-8 ovarian = tested on: OVCAR-8 ovarian
MDA-MB-435 = tested on: MDA-MB-435
LOX IMVI melanoma = tested on: LOX IMVI melanoma
MDA-MB-231 breast = tested on: MDA-MB-231 breast
T-47D breast = tested on: T-47D breast
HCT-15 colon = tested on: HCT-15 colon
NCI-H522 lung = tested on: NCI-H522 lung
SW-620 colon = tested on: SW-620 colon
KM12 colon = tested on: KM12 colon
OVCAR-3 ovarian = tested on: OVCAR-3 ovarian
HT29 colon = tested on: HT29 colon
UACC-257 melanoma = tested on: UACC-257 melanoma
EKVX NSCLC = tested on: EKVX NSCLC
IGROV1 ovarian = tested on: IGROV1 ovarian
HS 578T breast = tested on: HS 578T breast
COLO 205 colon = tested on: COLO 205 colon
SNB-19 CNS = tested on: SNB-19 CNS
HOP-92 NSCLC = tested on: HOP-92 NSCLC
SK-MEL-5 melanoma = tested on: SK-MEL-5 melanoma
NCI-H226 lung = tested on: NCI-H226 lung
M14 melanoma = tested on: M14 melanoma
SF-295 CNS = tested on: SF-295 CNS
MCF7 breast = tested on: MCF7 breast
CAKI-1 renal = tested on: CAKI-1 renal
SK-OV-3 ovarian = tested on: SK-OV-3 ovarian
K-562 leukemia = tested on: K-562 leukemia
A498 renal = tested on: A498 renal
ACHN renal = tested on: ACHN renal
BT-549 breast = tested on: BT-549 breast
SR leukemia = tested on: SR leukemia
OVCAR-4 ovarian = tested on: OVCAR-4 ovarian
SN12C renal = tested on: SN12C renal
HCC-2998 colon = tested on: HCC-2998 colon
SNB-75 CNS = tested on: SNB-75 CNS
PC-3 prostate = tested on: PC-3 prostate
SF-268 CNS = tested on: SF-268 CNS
MALME-3M melanoma = tested on: MALME-3M melanoma
NCI-H460 lung = tested on: NCI-H460 lung

CCN(CC)c1ccc(/C=C2\SC(=O)C(Nc3nnc(-c4cccnc4SCc4ccccc4)o3)C2=O)cc1 (stereo not given)
GI50 (NCI/ADR-RES ovarian): 3.7 µM
TGI (NCI/ADR-RES ovarian): > 100 µM
GI50 (NCI-H23 lung): 2.58 µM
TGI (NCI-H23 lung): 8.62 µM
GI50 (HL-60(TB) leukemia): 3.88 µM
TGI (HL-60(TB) leukemia): > 100 µM
GI50 (SK-MEL-2 melanoma): 10.1 µM
TGI (SK-MEL-2 melanoma): 53.2 µM
GI50 (CCRF-CEM leukemia): 3.37 µM
TGI (CCRF-CEM leukemia): > 100 µM
GI50 (TK-10 renal): 22.3 µM
TGI (TK-10 renal): > 100 µM
GI50 (UACC-62 melanoma): 4.2 µM
TGI (UACC-62 melanoma): 27.4 µM
GI50 (HOP-62 NSCLC): 4.32 µM
TGI (HOP-62 NSCLC): 24.9 µM
GI50 (HCT-116 colon): 3.53 µM
TGI (HCT-116 colon): > 100 µM
GI50 (UO-31 renal): 5.42 µM
TGI (UO-31 renal): > 100 µM
GI50 (DU-145 prostate): 2.76 µM
TGI (DU-145 prostate): 6.92 µM
GI50 (A549 NSCLC): 3.98 µM
TGI (A549 NSCLC): > 100 µM
GI50 (786-0 renal): 9.51 µM
TGI (786-0 renal): > 100 µM
GI50 (SK-MEL-28 melanoma): 5.29 µM
TGI (SK-MEL-28 melanoma): 36.7 µM
GI50 (OVCAR-5 ovarian): 5.1 µM
TGI (OVCAR-5 ovarian): > 100 µM
GI50 (SF-539 CNS): 3.21 µM
TGI (SF-539 CNS): 15.5 µM
GI50 (MOLT-4 leukemia): 3.53 µM
TGI (MOLT-4 leukemia): > 100 µM
GI50 (OVCAR-8 ovarian): 4 µM
TGI (OVCAR-8 ovarian): > 100 µM
GI50 (MDA-MB-435): 2.18 µM
TGI (MDA-MB-435): 5.81 µM
GI50 (LOX IMVI melanoma): 3.76 µM
TGI (LOX IMVI melanoma): > 100 µM
GI50 (MDA-MB-231 breast): 2.34 µM
TGI (MDA-MB-231 breast): 10.4 µM
GI50 (T-47D breast): 12.8 µM
TGI (T-47D breast): 89.7 µM
GI50 (HCT-15 colon): 3.83 µM
TGI (HCT-15 colon): > 100 µM
GI50 (NCI-H522 lung): 3.15 µM
TGI (NCI-H522 lung): 9.67 µM
GI50 (SW-620 colon): 3.94 µM
TGI (SW-620 colon): > 100 µM
GI50 (KM12 colon): 3.64 µM
TGI (KM12 colon): 28.4 µM
GI50 (OVCAR-3 ovarian): 2.77 µM
TGI (OVCAR-3 ovarian): 6.29 µM
GI50 (HT29 colon): 3.63 µM
TGI (HT29 colon): > 100 µM
GI50 (UACC-257 melanoma): 16.6 µM
TGI (UACC-257 melanoma): > 100 µM
GI50 (EKVX NSCLC): 6.72 µM
TGI (EKVX NSCLC): > 100 µM
GI50 (IGROV1 ovarian): 10.9 µM
TGI (IGROV1 ovarian): 56.8 µM
GI50 (HS 578T breast): 2.61 µM
TGI (HS 578T breast): 8.77 µM
GI50 (COLO 205 colon): 2.19 µM
TGI (COLO 205 colon): 4.65 µM
GI50 (SNB-19 CNS): 6.59 µM
TGI (SNB-19 CNS): > 100 µM
GI50 (HOP-92 NSCLC): 2.58 µM
TGI (HOP-92 NSCLC): 35 µM
GI50 (SK-MEL-5 melanoma): 3.85 µM
TGI (SK-MEL-5 melanoma): 14.4 µM
GI50 (NCI-H226 lung): 9.41 µM
TGI (NCI-H226 lung): 57.6 µM
GI50 (M14 melanoma): 3.24 µM
TGI (M14 melanoma): 13.5 µM
GI50 (SF-295 CNS): 3.2 µM
TGI (SF-295 CNS): 85.6 µM
GI50 (MCF7 breast): 3.01 µM
TGI (MCF7 breast): > 100 µM
GI50 (CAKI-1 renal): 4.43 µM
TGI (CAKI-1 renal): > 100 µM
GI50 (SK-OV-3 ovarian): 3.34 µM
TGI (SK-OV-3 ovarian): 19.9 µM
GI50 (K-562 leukemia): 3.24 µM
TGI (K-562 leukemia): > 100 µM
GI50 (A498 renal): 1.76 µM
TGI (A498 renal): 8.2 µM
GI50 (ACHN renal): 6.78 µM
TGI (ACHN renal): > 100 µM
GI50 (BT-549 breast): 12 µM
TGI (BT-549 breast): 59.3 µM
GI50 (SR leukemia): 3.29 µM
TGI (SR leukemia): > 100 µM
GI50 (OVCAR-4 ovarian): 5.19 µM
TGI (OVCAR-4 ovarian): > 100 µM
GI50 (SN12C renal): 4.11 µM
TGI (SN12C renal): > 100 µM
GI50 (HCC-2998 colon): 2.99 µM
TGI (HCC-2998 colon): 10.4 µM
GI50 (SNB-75 CNS): 2.56 µM
TGI (SNB-75 CNS): 42.2 µM
GI50 (PC-3 prostate): 3.34 µM
TGI (PC-3 prostate): > 100 µM
GI50 (SF-268 CNS): 6.8 µM
TGI (SF-268 CNS): > 100 µM
GI50 (MALME-3M melanoma): 4.12 µM
TGI (MALME-3M melanoma): > 100 µM
GI50 (NCI-H460 lung): 3.21 µM
TGI (NCI-H460 lung): > 100 µM
